The test system of this data set is SKOV-3 cancer cell lines. Nature of the data set: SKOV-3 cell viability after treatment with 10 μM test compound. Format: cell-based. The conditions noted are these: for viability at 10 µM: Homo sapiens, SK-OV-3, 10 micromolar test compound, SKOV-3 cells; for % viability after treatment with 10 micromolar of test compound (SKOV-3 cells): 10 micromolar test compound. How it is done:
SKOV-3 cancer cell lines were treated with a test compound, either as a pure enantiomer or a mixture of stereoisomers, at a concentration of 10 μM. Cell viability was evaluated following treatment with a compound as disclosed in Table B. Viability of cancer cells following treatment is indicated according to the following legend:
A=0-25% viability B=26-50% viability C=>50% viability

The values below come from patent US20230295181A1, “INHIBITOR OF APOPTOSIS (IAP) PROTEIN ANTAGONISTS” (Sanford Burnham Prebys Medical Discovery Institute, priority 2020, published 2023).

In general, viability refers to a read-out of living cells in per cent, often relative to untreated cells. A lower viability goes with a greater loss of cells.

Where a name gives a salt, the structure may show the parent alone.

In turn, `CN[C@@H](C)C(=O)N[C@H]1Cc2c([nH]c3ccccc23)[C@H]2CC(C)(C)C(C(=O)N[C@@H]3CCCc4ccccc43)N2C1=O` (stereo in doubt) [Compound 3, (3S, 6S,12bR)-2,2-dimethyl-6-((S)-2-(methylamino)propanamido)-5-oxo-N—((R)-1,2,3,4-tetrahydronaphthalen-1-yl)-1,2,3,5,6,7,12,12b-octahydropyrrolo[1′,2′:1,2]azepino[3,4-b]indole-3-carboxamide hydrochloride] displayed a viability at 10 µM of more than 50%.
As to `CN[C@@H](C)C(=O)N[C@H]1CCO[C@H]2CC(C)(C)[C@@H](CN[C@@H]3CCSc4ccccc43)N2C1=O` [Compound 67, (S)—N-((4S,7S,9aS)-8,8-dimethyl-5-oxo-7-((((R)-thiochroman-4-yl)amino)methyl)octahydropyrrolo[2,1-b][1,3]oxazepin-4-yl)-2-(methylamino)propanamide dihydrochloride], the “% viability after treatment with 10 micromolar of test compound (SKOV-3 cells)” value (from here on “% viability after treatment”) (dihydrochloride) is listed as “B (B=26-50% viability)”.
Take `C=CCC1C[C@@H]2SCC[C@H](NC(=O)[C@H](C)NC)C(=O)N2[C@@H]1C(=O)N[C@@H]1CCCc2ccccc21` (stereo partly drawn) [Compound 30, (4S,9aS)-8,8-allyl-4-((S)-2-(methylamino)propanamido)-5-oxo-N—((R)-1,2,3,4-tetrahydronaphthalen-1-yl)octahydropyrrolo[2,1-b][1,3]thiazepine-7-carboxamide hydrochloride]: the “% viability after treatment” value (hydrochloride) is given as “B (B=26-50% viability)”.
`CN[C@@H](C)C(=O)N[C@H]1Cc2ccc(OC)cc2[C@H]2CC(C)(C)[C@H](C(=O)N[C@@H]3CCCc4ccccc43)N2C1=O` [Compound 10, (6S,11bR)-10-methoxy-2,2-dimethyl-6-((S)-2-(methylamino)propanamido)-5-oxo-N—((R)-1,2,3,4-tetrahydronaphthalen-1-yl)-2,3,5,6,7,11b-hexahydro-1H-benzo[c]pyrrolo[1,2-a]azepine-3-carboxamide hydrochloride] returned a viability at 10 µM of 26 to 50%.
For the compound `C=CCC1(CC=C)C[C@@H]2SCC[C@H](NC(=O)[C@H](C)NC)C(=O)N2[C@H]1C(=O)N[C@@H]1CCCc2ccccc21` [Compound 28, (4S,9aS)-8,8-diallyl-4-((S)-2-(methylamino)propanamido)-5-oxo-N—((R)-1,2,3,4-tetrahydronaphthalen-1-yl)octahydropyrrolo[2,1-b][1,3]thiazepine-7-carboxamide hydrochloride], the viability at 10 µM lay within 26 to 50%.
With `C=CCC1C[C@@H]2OCC[C@H](NC(=O)[C@H](C)NC)C(=O)N2[C@H]1C(=O)N[C@@H]1CCCc2ccccc21` (stereo partly drawn) [Compound 13, (4S,9aS)-8,8-allyl-4-((S)-2-(methylamino)propanamido)-5-oxo-N—((R)-1,2,3,4-tetrahydronaphthalen-1-yl)octahydropyrrolo[2,1-b][1,3]oxazepine-7-carboxamide hydrochloride], the viability at 10 µM lay within 26 to 50%.
In the case of `CN[C@@H](C)C(=O)N[C@H]1CCS[C@H]2CC(C(C)C)(C(C)C)[C@@H](C(=O)N[C@@H]3CCCc4ccccc43)N2C1=O` [Compound 42, 4S,9aS)-8,8-diisopropyl-4-((S)-2-(methylamino)propanamido)-5-oxo-N—((R)-1,2,3,4-tetrahydronaphthalen-1-yl)octahydropyrrolo[2,1-b][1,3]thiazepine-7-carboxamide hydrochloride], the “% viability after treatment” value (hydrochloride) was “C (C=>50% viability)”.
In the case of `C=CCC1C[C@@H]2OCC[C@H](NC(=O)[C@H](C)NC)C(=O)N2[C@@H]1C(=O)NC(c1ccccc1)c1ccccc1` (stereo partly drawn) [Compound 53, (4S)-8,8-allyl-N-benzhydryl-4-((S)-2-(methylamino)propanamido)-5-oxooctahydropyrrolo[2,1-b][1,3]oxazepine-7-carboxamide hydrochloride], the viability at 10 µM was 26 to 50%.
In turn, `CN[C@@H](C)C(=O)N[C@H]1CCO[C@H]2CC(CCc3ccccc3)(CCc3ccccc3)[C@@H](C(=O)NC(c3ccccc3)c3ccccc3)N2C1=O` [Compound 62, (4S)—N-benzhydryl-4-((S)-2-(methylamino)propanamido)-5-oxo-8,8-diphenethyloctahydropyrrolo[2,1-b][1,3]oxazepine-7-carboxamide hydrochloride] showed a viability at 10 µM of more than 50%.
In turn, `CCC1(CC)C[C@@H]2OCC[C@H](NC(=O)[C@H](C)NC)C(=O)N2[C@H]1C(=O)N[C@@H]1CCCc2ccccc21` [Compound 19, (4S)-8,8-diethyl-4-((S)-2-(methylamino)propanamido)-5-oxo-N—((R)-1,2,3,4-tetrahydronaphthalen-1-yl)octahydropyrrolo[2,1-b][1,3]oxazepine-7-carboxamide hydrochloride] returned a viability at 10 µM of 26 to 50%.
On to `CN[C@@H](C)C(=O)N[C@H]1CCO[C@H]2CC(CCc3ccccc3)(CCc3ccccc3)[C@@H](C(=O)N[C@@H]3CCCc4ccccc43)N2C1=O` [Compound 26, (4S,9aS)-4-((S)-2-(methylamino)propanamido)-5-oxo-8,8-diphenethyl-N—((R)-1,2,3,4-tetrahydronaphthalen-1-yl)octahydropyrrolo[2,1-b][1,3]oxazepine-7-carboxamide hydrochloride], for which the “% viability after treatment” value (hydrochloride) is “C (C=>50% viability)”.
As for `CN[C@@H](C)C(=O)N[C@H]1CCS[C@H]2CC(CCc3ccccc3)[C@@H](C(=O)N[C@@H]3CCCc4ccccc43)N2C1=O` (stereo partly drawn) [Compound 46, (4S,9aS)-4-((S)-2-(methylamino)propanamido)-5-oxo-8,8-phenethyl-N—((R)-1,2,3,4-tetrahydronaphthalen-1-yl)octahydropyrrolo[2,1-b][1,3]thiazepine-7-carboxamide hydrochloride], for the setting “hydrochloride”, the “% viability after treatment” value is given as “B (B=26-50% viability)”.
For the compound `C=CCC1(CC=C)C[C@@H]2OCC[C@H](NC(=O)[C@H](C)NC)C(=O)N2[C@@H]1C(=O)NC(c1ccccc1)c1ccccc1` [Compound 52, (4S)-8,8-diallyl-N-benzhydryl-4-((S)-2-(methylamino)propanamido)-5-oxooctahydropyrrolo[2,1-b][1,3]oxazepine-7-carboxamide hydrochloride], the “% viability after treatment” value (hydrochloride) is “B (B=26-50% viability)”.
With `CN[C@@H](C)C(=O)N[C@H]1CCS[C@H]2CC(C)(C)[C@@H](C(=O)N[C@H](CCC(=O)O)c3ccccc3)N2C1=O` [Compound 77, (R)-4-((4S,7S,9aS)-8,8-dimethyl-4-((S)-2-(methylamino)propanamido)-5-oxooctahydropyrrolo[2,1-b][1,3]thiazepine-7-carboxamido)-4-phenylbutanoic acid hydrochloride], the viability at 10 µM is 26 to 50%.
For `CN[C@@H](C)C(=O)N[C@H]1CCO[C@H]2CC(C)(C)[C@@H](CN[C@@H]3CCOc4ccccc43)N2C1=O` [Compound 73, (S)—N-((4S,7S,9aS)-7-((((R)-chroman-4-yl)amino)methyl)-8,8-dimethyl-5-oxooctahydropyrrolo[2,1-b][1,3]oxazepin-4-yl)-2-(methylamino)propanamide dihydrochloride], the viability at 10 µM fell in the range of 26 to 50%.
In turn, `CN[C@@H](C)C(=O)N[C@H]1CCO[C@H]2CC(C)(C)C(c3nc4ccccc4o3)N2C1=O` (stereo partly drawn) [Compound 72, (2S)—N-((4S,9aS)-7-(benzo[d]oxazol-2-yl)-8,8-dimethyl-5-oxooctahydropyrrolo[2,1-b][1,3]oxazepin-4-yl)-2-(methylamino)propanamide hydrochloride] gave a viability at 10 µM of more than 50%.
Compound `CN[C@@H](C)C(=O)N[C@H]1Cc2ccc(OC)cc2[C@H]2CC(C)(C)C(C(=O)NC(c3ccccc3)c3ccccc3)N2C1=O` (single isomer, unassigned) [Compound 6, hydrochloride] yielded a viability at 10 µM of 26 to 50%.
For the compound `CN[C@@H](C)C(=O)N[C@H]1Cc2cc(OC)ccc2[C@H]2CC(C)(C)C(C(=O)NC(c3ccccc3)c3ccccc3)N2C1=O` (stereo partly drawn) [Compound 5, (6S,11bR)—N-benzhydryl-9-methoxy-2,2-dimethyl-6-((S)-2-(methylamino)propanamido)-5-oxo-2,3,5,6,7,11b-hexahydro-1H-benzo[c]pyrrolo[1,2-a]azepine-3-carboxamide], the viability at 10 µM was more than 50%.
As to `CN[C@@H](C)C(=O)N[C@H]1CCS[C@H]2CC(C(C)C)(C(C)C)[C@@H](C(=O)N[C@@H]3CCCc4ccccc43)N2C1=O` [Compound 43, 4S,9aS)-8,8-diisopropyl-4-((S)-2-(methylamino)propanamido)-5-oxo-N—((R)-1,2,3,4-tetrahydronaphthalen-1-yl)octahydropyrrolo[2,1-b][1,3]thiazepine-7-carboxamide hydrochloride], the “% viability after treatment” value (hydrochloride) is reported as “C (C=>50% viability)”.
In the case of `CCC1(CC)C[C@@H]2SCC[C@H](NC(=O)[C@H](C)NC)C(=O)N2[C@@H]1C(=O)N[C@@H]1CCCc2ccccc21` [Compound 39, (4S,9aS)-8,8-diethyl-4-((S)-2-(methylamino)propanamido)-5-oxo-N—((R)-1,2,3,4-tetrahydronaphthalen-1-yl)octahydropyrrolo[2,1-b][1,3]thiazepine-7-carboxamide hydrochloride], the “% viability after treatment” value (hydrochloride) was “B (B=26-50% viability)”.
`CN[C@@H](C)C(=O)N[C@H]1CCOC2c3ccncc3C(C(=O)N[C@@H]3CCCc4ccccc43)N2C1=O` (stereo partly drawn) [Compound 4, (4S)-4-((S)-2-(methylamino)propanamido)-5-oxo-N—((R)-1,2,3,4-tetrahydronaphthalen-1-yl)-2,3,4,5,7,11b-hexahydropyrido[4′,3′:3,4]pyrrolo[2,1-b][1,3]oxazepine-7-carboxamide dihydrochloride]: the viability at 10 µM is more than 50%.
